Where two headings read alike, the source gives them in different places.
Legend:
Micrococcus luteus B-109 = test: Agar-well diffusion, bactericidal activity; assay type: cell-based; conditions: Micrococcus luteus
Method in brief: (§1)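 Bacteria spread on agar (BP medium; GYCa for X. campestris; pH 7.2–7.4) with 6-mm wells, each receiving 150 μL compound solution. Cultures grown at 28 °C; growth-inhibition zone width measured after 36–40 h.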

[1] = system: Pectobacterium atrosepticum 1043; test: Agar-well diffusion, bactericidal activity; assay type: cell-based; conditions: Pectobacterium atrosepticum, 1043, 2 mM/L
Method in brief: as §1

[2] = system: Pectobacterium carotovorum subsp. carotovorum MI; test: Agar-well diffusion, bactericidal activity; assay type: cell-based; conditions: Pectobacterium carotovorum, 2 mM/L
Method in brief: as §1

[3] = system: Pseudomonas fluorescens EL-2.1; test: Agar-well diffusion, bactericidal activity; assay type: cell-based; conditions: Pseudomonas fluorescens, EL2.1, 2 mM/L
Method in brief: as §1

[4] = system: Xanthomonas campestris B-610; test: Agar-well diffusion, bactericidal activity; assay type: cell-based; conditions: Xanthomonas campestris
Method in brief: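 Agar-well diffusion on GYCa agar (pH 7.2–7.4) seeded with bacterial suspension; 150 μL compound solution placed in 6-mm wells. Inhibition zone width measured after 36–40 h incubation.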

[5] = system: five representative phytopathogens; test: Agar-well diffusion, bactericidal activity over the panel of phytopathogens; assay type: cell-based
Method in brief: as §1

[6] = system: Fusarium oxysporum IBPPM 543; test: Mycelial radial growth inhibition; assay type: cell-based; conditions: Fusarium oxysporum; for inhibition of growth at 1 µM: 1 nmol/mL; for inhibition of growth at 1 µM / inhibition of growth at 5 µM / inhibition of growth at 20 µM / inhibition of growth at 40 µM: read-out: Inhibition value, I (%); for inhibition of growth at 5 µM: 5 nmol/mL; for inhibition of growth at 20 µM: 20 nmol/mL; for inhibition of growth at 40 µM: 40 nmol/mL
Method in brief: (§2)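 Compounds mixed into molten GPY agar at various concentrations; centre inoculated with a 5-mm mycelial plug from 10-day cultures and incubated at 27 °C. Colony diameter compared with untreated control until control plate was covered (usually 12 days); ≥4 replicates in two experiments.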

[7] = system: Phytophthora cactorum VKM F-985; test: Mycelial radial growth inhibition; assay type: cell-based; conditions: Phytophthora cactorum; for inhibition of growth at 1 µM: 1 nmol/mL; for inhibition of growth at 1 µM / inhibition of growth at 5 µM / inhibition of growth at 15 µM / inhibition of growth / inhibition of growth at 40 µM: read-out: Inhibition value, I (%); for inhibition of growth at 5 µM: 5 nmol/mL; for inhibition of growth at 15 µM: 15 nmol/mL; for inhibition of growth: 27 nmol/mL; for inhibition of growth at 40 µM: 40 nmol/mL
Method in brief: as §2

[8] = Table S3, read-out: Inhibition zone width (mm), not less
[9] = IBPPM543, 72 h, age of the fungus 3 days
[10] = IBPPM543, 120 h, age of the fungus 5 days
[11] = IBPPM543, 168 h, age of the fungus 7 days
[12] = IBPPM543, 216 h, age of the fungus 9 days
[13] = 120 h, age of the fungus 5 days
[14] = 168 h, age of the fungus 7 days
[15] = 216 h, age of the fungus 9 days

O=C(C[n+]1ccccc1)NN=C1C(=O)N(Cc2c(F)cccc2Cl)c2ccc(F)cc21.[Cl-] [Compound 5b, 1-(2-(2-(5-Fluoro-1-(6-chloro-2-fluorobenzyl)-2-oxoindolin-3-ylidene)hydrazinyl)-2-oxoethyl)pyridin-1-ium chloride]
zone of inhibition at 2000 µM (Micrococcus luteus B-109; B109, 2 mM/L, average of 3 experiments, read-out: width of the inhibition zone (mm), M. luteus): 4 mm
zone of inhibition at 2000 µM (Micrococcus luteus B-109; B109, Table S3, 2 mM/L, read-out: Inhibition zone width (mm), not less): ≥ 4 mm
zone of inhibition at 2000 µM ([1]; average of 3 experiments, read-out: width of the inhibition zone (mm), P. atrosepticum): 4 mm
zone of inhibition at 2000 µM [1, 8]: ≥ 4 mm
zone of inhibition at 2000 µM ([2]; average of 3 experiments, read-out: width of the inhibition zone (mm), P. carotovorum subsp. carotovorum): 3 mm
zone of inhibition at 2000 µM [2, 8]: ≥ 3 mm
zone of inhibition at 2000 µM ([3]; average of 3 experiments, read-out: width of the inhibition zone (mm), Ps. fluorescens): 2.5 mm
zone of inhibition at 2000 µM [3, 8]: ≥ 2 mm
zone of inhibition at 2000 µM ([4]; B610, 2 mM/L, average of 3 experiments, read-out: width of the inhibition zone (mm), X. campestris): 3 mm
zone of inhibition at 2000 µM ([4]; B610, Table S3, 2 mM/L, read-out: Inhibition zone width (mm), not less): ≥ 3 mm
zone of inhibition at 2000 µM ([5]; 36 h, 2 mM solutions, dependent on the test system used, read-out: inhibition zone width (mm), range over the test systems): 2.5 to 4 mm
bactericidal activity ([5]; Table S2): moderate bactericidal activity
inhibition of growth at 1 µM [6, 9]: 9%
inhibition of growth at 5 µM [6, 9]: 33%
inhibition of growth at 20 µM [6, 9]: 41%
inhibition of growth at 40 µM [6, 9]: 53%
EC50 ([6]; IBPPM543, 120 h, day 5, read-out: EC50, µg/mL at Day 5, F. oxysporum): 14.8 µg/mL
inhibition of growth at 1 µM [6, 10]: 10%
inhibition of growth at 5 µM [6, 10]: 34%
inhibition of growth at 20 µM [6, 10]: 42%
inhibition of growth at 40 µM [6, 10]: 56%
inhibition of growth at 1 µM [6, 11]: 9%
inhibition of growth at 5 µM [6, 11]: 25%
inhibition of growth at 20 µM [6, 11]: 34%
inhibition of growth at 40 µM [6, 11]: 40%
inhibition of growth at 1 µM [6, 12]: 0%
inhibition of growth at 5 µM [6, 12]: 19%
inhibition of growth at 20 µM [6, 12]: 28%
inhibition of growth at 40 µM [6, 12]: 31%
inhibition of growth at 1 µM ([7]; 72 h, age of the fungus 3 days): 18%
inhibition of growth at 5 µM ([7]; 72 h, age of the fungus 3 days): 27%
inhibition of growth at 15 µM ([7]; 72 h, age of the fungus 3 days): 30%
inhibition of growth ([7]; 72 h, age of the fungus 3 days): 33%
inhibition of growth at 40 µM ([7]; 72 h, age of the fungus 3 days): 44%
EC50 ([7]; 120 h, day 5, read-out: EC50, µg/mL at Day 5, P. cactorum): 18.2 µg/mL
inhibition of growth at 1 µM [7, 13]: 26%
inhibition of growth at 5 µM [7, 13]: 35%
inhibition of growth at 15 µM [7, 13]: 38%
inhibition of growth [7, 13]: 43%
inhibition of growth at 40 µM [7, 13]: 50%
inhibition of growth at 1 µM [7, 14]: 11%
inhibition of growth at 5 µM [7, 14]: 24%
inhibition of growth at 15 µM [7, 14]: 29%
inhibition of growth [7, 14]: 31%
inhibition of growth at 40 µM [7, 14]: 44%
inhibition of growth at 1 µM [7, 15]: 6%
inhibition of growth at 5 µM [7, 15]: 16%
inhibition of growth at 15 µM [7, 15]: 19%
inhibition of growth [7, 15]: 26%
inhibition of growth at 40 µM [7, 15]: 39%
melting point: 152 to 153 °C
